Measured values reported in PMC6592621 (Experimental neurology, 2019).

Assays:
[1] = in mice; ref Parkinson Study Group, 2007; cited from earlier work
185 other kinases = settings: at 1uM; ref Goodfellow et al., 2013; cited from earlier work
[2] = over 4 weeks in subjects with PD; ref Parkinson Study Group, 2007; cited from earlier work
striatal TH = experiment: Western blot of striatal TH in MPTP model; assay type: in vivo, C57BL/6J mice; settings: 20 mg/kg MPTP for 5 days, vs neurotoxin vehicle or drug vehicle
striatal DA = experiment: HPLC of striatal neurochemistry in MPTP model; assay type: in vivo, C57BL/6J mice; settings: MPTP 20 mg/kg s.c. 5 days, vs neurotoxin vehicle or drug vehicle
TH+ neurons in the SNpc = assay type: in vivo, C57BL/6J mice; settings: MPTP-treated mice vs neurotoxin vehicle or drug vehicle controls
p38 = settings: treatment in mice; ref Dong et al., 2016; cited from earlier work
p46-JNK = settings: treatment in mice; ref Dong et al., 2016; cited from earlier work
p54-JNK = settings: treatment in mice; ref Dong et al., 2016; cited from earlier work
CD68 expression = settings: mouse EAE hippocampus; ref Bellizzi et al., 2018; cited from earlier work

SMILES: CCSCc1ccc2c(c1)c1c3c(c4c5cc(CSCC)ccc5n5c4c1n2[C@H]1C[C@](O)(C(=O)OC)[C@]5(C)O1)CNC3=O [CEP-1347]
- brain/plasma ratio [1]: < 0.2
- number of other kinases with 50% inhibition (185 other kinases): 185
- safety and tolerability [2]: safe and well tolerated

SMILES: CN1CC=C(c2ccccc2)CC1 [MPTP, 1-methyl-4-phenyl-1,2,3,6-tetrahydropyridine]
- reduction in striatal TH expression (striatal TH): approximately 50%
- reduction in striatal dopamine (striatal DA): approximately 50%
- reduction in the number of TH+ neurons in the SNpc (TH+ neurons in the SNpc): approximately 84%

SMILES: CN1CCN(Cc2ccc(-c3cnc4[nH]cc(-c5ccc6[nH]ccc6c5)c4c3)cc2)CC1 [URMC-099]
- decrease in phosphorylation of p38 (p38): 21.5%
- decrease in phosphorylation of p46-JNK (p46-JNK): 17.3%
- decrease in phosphorylation of p54-JNK (p54-JNK): 23.7%
- effect on CD68 expression (CD68 expression): prevented increased CD68 expression
